Reference: patent publication US20060009478A1, “Methods for the treatment of back pain” (priority 2003, published 2006)

Legend:
[1] = Plasma concentrations of oxycodone, oxymorphone, noroxycodone, naltrexone and 6β-naltrexol by solid phase extraction LC-MS/MS
Excerpt: Patients with moderate-to-severe pain due to osteoarthritis of the hip or knee were randomly assigned to one of four treatment groups as shown in Table 3 of Example 1. Plasma samples were obtained for each patient at the beginning of Weeks 1, 2, 3 and at the end of dosing during Week 3.
For the analysis of linearity and dose proportionality, linear equation coefficients were obtained by averaging patient-specific slopes and intercepts obtained by within-patient least squares regression. This was done to account for the correlation among the repeated measurements due to the patient's contributing data at each dose level. The resulting slopes among treatment groups were compared by one-way analysis of variance (ANOVA), and a one-sample t-test assessed the common slope's difference from zero. A measure of deviation from linearity was constructed as the difference between the concentration at the middle dose versus the average of the concentrations at the lower and higher doses. Due to equal spacing of doses, this measure has expectation zero under the hypothesis of linearity. As above, ANOVA and t-tests were used to assess linearity.
To achieve symmetry, modified log transformations were used.

[2] = system: patients with moderate to severe chronic pain due to osteoarthritis of the hip or knee; test: Emax composite model of 6β-naltrexol plasma concentration versus percent change in pain intensity; settings: for EC51 Estimate / EC52 Estimate / Emax1 Estimate / Emax2 Estimate: WinNonlin
Procedure: As discussed in more detail below, the percent change in pain intensity was the drug effect used in a modeling analysis of plasma concentration vs. drug effect.
The plasma concentration-effect data were fit to the Emax composite model using the software program WinNonlin®(commercially available from Pharsight Corporation of Mountain View, Calif.) and the command files developed by Gabrielsson et al. The plasma concentration-effect data represented as circles in FIG. 11 were evaluated mathematically and the plasma concentration-effect curve shown in FIG. 11 was determined by the program and command files. Similarly, the program and command files were used to determine the plasma concentration-effect curve shown in FIG. 12 based on the data represented as circles in FIG. 12.
The computer output (printout) of this process included EC51 and EC52 parameters, as well as parameters reflecting statistical evaluation of the data, such as coefficient of variation (CV %).
These parameters are based on the data for 6β-naltrexol plasma concentrations and reduction in pain from baseline pain intensity to final pain intensity from all subjects for whom plasma concentration data was obtained as described herein. These parameters are based on data from subjects receiving the BID dosing regimens and subjects receiving the QID dosing regimen. Estimate refers to the value estimated by the WinNonlin® program and command file for relating plasma concentrations to the pharmacodynamic effects such as percent reduction in pain intensity.
These parameters are based on the data (6β-naltrexol plasma concentrations and percent reduction in pain intensity) for subjects receiving BID dosing regimens.

[3] = naltrexone hydrochloride in solution mixed with croscarmellose sodium in suspension; cited from earlier work
[4] = Total (BID and QID) data, curve of FIG. 11

With Oc1ccc2c3c1O[C@H]1[C@H](O)CC[C@@]4(O)[C@@H](C2)N(CC2CC2)CC[C@]314 [6β-naltrexol] the “Plasma concentrations over the course of the study (sampled at the end of each treatment week)” value ([1]; FIG. 7, combination drug BID and QID) was “remained constant throughout the study”, the “EC51 Estimate” value ([2]; BID data, curve of FIG. 12) was 14.0 pg/mL and the “EC52 Estimate” value ([2]; BID data, curve of FIG. 12) was 0.422 pg/mL. For the same compound, the “Emax1 Estimate” value ([2]; BID data, curve of FIG. 12) was 27.0 units, the “Emax2 Estimate” value ([2]; BID data, curve of FIG. 12) was 76.3 units and the “EC52 parameter, 6β-naltrexol plasma concentration” value ([2]; Emax composite model, total (BID and QID) data, Table 26, effect = percent reduction in pain intensity, 6β-naltrexol as surrogate for naltrexone) was “about 0.439 μg/ml”. For the same compound, the “EC51 Estimate” value [2, 4] was 14.4 pg/mL, the “EC52 Estimate” value [2, 4] was 0.439 pg/mL and the “Emax1 Estimate” value [2, 4] was 26.8 units. For the same compound, the “Emax2 Estimate” value [2, 4] was 79.7 units.

In the case of O=C1CC[C@@]2(O)[C@H]3Cc4ccc(O)c5c4[C@@]2(CCN3CC2CC2)[C@H]1O5 [naltrexone], the “Fraction of naltrexone hydrochloride bound by croscarmellose sodium” value [3] is given as “more than 90%”.

In the case of CN1CC[C@]23c4c5ccc(O)c4O[C@H]2C(=O)CC[C@@]3(O)[C@H]1C5 [oxymorphone], the “Mean plasma concentration versus dose level over the course of the study” value ([1]; FIGS. 1 and 2) is reported as “increased linearly with increasing dose levels”, the “Plasma concentration of oxymorphone (ng/mL) versus dose of oxycodone (mg/day): slope of linear equation” value ([1]; average of patient-specific regressions, slope p<0.001, t-test) is reported as 0.007153 and the “Plasma concentration of oxymorphone versus dose of oxycodone (mg/day): intercept of linear equation” value ([1]; average of patient-specific within-patient least squares regressions, all active treatments) is reported as 0.0607 ng/mL.
